The text below walks through data of ChEMBL document CHEMBL1914417 (Bioorg Med Chem Lett, 2011).

The structures appear in SMILES notation.

The target in experiment [1] is T1, Muscarinic acetylcholine receptor M2 (Rattus norvegicus, UniProt P10980).
T1 sequence (P10980 whole entry): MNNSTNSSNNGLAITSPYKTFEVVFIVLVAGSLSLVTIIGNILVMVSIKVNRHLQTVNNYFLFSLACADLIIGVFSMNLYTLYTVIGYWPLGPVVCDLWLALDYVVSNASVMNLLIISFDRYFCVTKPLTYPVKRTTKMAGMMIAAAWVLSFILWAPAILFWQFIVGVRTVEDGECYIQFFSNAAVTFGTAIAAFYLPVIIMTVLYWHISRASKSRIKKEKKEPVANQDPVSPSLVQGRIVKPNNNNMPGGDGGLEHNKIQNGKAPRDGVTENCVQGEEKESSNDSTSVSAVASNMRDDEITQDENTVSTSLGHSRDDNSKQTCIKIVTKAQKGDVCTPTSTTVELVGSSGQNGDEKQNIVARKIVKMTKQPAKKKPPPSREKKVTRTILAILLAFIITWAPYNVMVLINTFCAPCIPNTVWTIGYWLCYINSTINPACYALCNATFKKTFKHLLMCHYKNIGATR
In words: Agonist activity at rat muscarinic M2 receptor expressed in CHO cells. The experiment is classed as functional, cell-based.

In experiment [2] the target is T2, Muscarinic acetylcholine receptor M5 (Rattus norvegicus, UniProt P08911).
T2 sequence (P08911 whole entry): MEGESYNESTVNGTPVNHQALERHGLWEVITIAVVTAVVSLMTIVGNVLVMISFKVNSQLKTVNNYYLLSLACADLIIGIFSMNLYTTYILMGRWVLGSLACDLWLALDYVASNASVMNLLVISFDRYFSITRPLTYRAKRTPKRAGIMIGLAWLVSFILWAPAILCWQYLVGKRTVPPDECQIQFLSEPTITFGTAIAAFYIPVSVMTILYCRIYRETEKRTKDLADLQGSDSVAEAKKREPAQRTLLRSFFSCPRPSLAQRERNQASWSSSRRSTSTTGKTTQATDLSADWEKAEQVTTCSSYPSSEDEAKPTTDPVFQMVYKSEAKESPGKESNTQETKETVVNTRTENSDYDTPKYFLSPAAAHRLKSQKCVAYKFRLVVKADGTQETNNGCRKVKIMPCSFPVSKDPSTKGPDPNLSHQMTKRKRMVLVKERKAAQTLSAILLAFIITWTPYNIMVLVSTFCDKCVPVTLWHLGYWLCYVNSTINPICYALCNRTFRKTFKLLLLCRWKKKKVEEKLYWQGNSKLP
In words: Agonist activity at rat muscarinic M5 receptor expressed in CHO cells. The experiment is classed as functional, cell-based.

For experiment [3], the target named is T3, Muscarinic acetylcholine receptor M1 (Homo sapiens, UniProt P11229).
T3 sequence (P11229 whole entry): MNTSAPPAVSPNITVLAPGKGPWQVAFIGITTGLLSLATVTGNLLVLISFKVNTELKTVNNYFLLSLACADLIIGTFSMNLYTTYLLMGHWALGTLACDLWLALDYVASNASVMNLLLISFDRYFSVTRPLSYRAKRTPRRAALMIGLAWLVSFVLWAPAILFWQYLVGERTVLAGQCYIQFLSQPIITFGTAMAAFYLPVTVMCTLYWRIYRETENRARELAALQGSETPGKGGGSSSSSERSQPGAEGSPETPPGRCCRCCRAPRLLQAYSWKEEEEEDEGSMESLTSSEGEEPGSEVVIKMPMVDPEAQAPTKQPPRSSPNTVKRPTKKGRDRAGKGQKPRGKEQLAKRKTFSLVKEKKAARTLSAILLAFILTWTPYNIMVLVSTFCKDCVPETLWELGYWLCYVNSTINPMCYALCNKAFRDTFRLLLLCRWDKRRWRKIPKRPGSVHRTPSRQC
In words: Agonist activity at human recombinant muscarinic M1 receptor by HTS cell based assay. The experiment is classed as functional.

The target of experiment [4] is T1, Muscarinic acetylcholine receptor M2. In words: Agonist activity at rat recombinant muscarinic M2 receptor by HTS cell based assay. It counts as functional.
Experiment [5] addresses Muscarinic acetylcholine receptor M3 (Rattus norvegicus, UniProt P08483). In words: Agonist activity at rat recombinant muscarinic M3 receptor by HTS cell based assay. It counts as functional.
The target of experiment [6] is T4, Muscarinic acetylcholine receptor M4 (Rattus norvegicus, UniProt P08485).
T4 sequence (P08485 whole entry): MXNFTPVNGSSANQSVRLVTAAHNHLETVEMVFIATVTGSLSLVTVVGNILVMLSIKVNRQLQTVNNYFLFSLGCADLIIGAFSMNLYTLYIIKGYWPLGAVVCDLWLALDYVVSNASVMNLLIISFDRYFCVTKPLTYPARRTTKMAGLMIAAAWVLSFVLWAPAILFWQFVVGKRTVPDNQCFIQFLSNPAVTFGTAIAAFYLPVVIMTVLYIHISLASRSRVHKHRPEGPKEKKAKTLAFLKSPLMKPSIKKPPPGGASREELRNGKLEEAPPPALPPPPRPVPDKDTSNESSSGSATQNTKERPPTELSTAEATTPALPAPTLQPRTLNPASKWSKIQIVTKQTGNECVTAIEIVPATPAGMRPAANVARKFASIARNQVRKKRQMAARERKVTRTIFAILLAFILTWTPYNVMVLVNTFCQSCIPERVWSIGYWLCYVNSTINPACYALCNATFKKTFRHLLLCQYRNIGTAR
In words: Agonist activity at rat recombinant muscarinic M4 receptor by HTS cell based assay. The experiment is classed as functional.

The target of experiment [7] is T5, Muscarinic acetylcholine receptor M4 (Homo sapiens, UniProt P08173).
T5 sequence (P08173 whole entry): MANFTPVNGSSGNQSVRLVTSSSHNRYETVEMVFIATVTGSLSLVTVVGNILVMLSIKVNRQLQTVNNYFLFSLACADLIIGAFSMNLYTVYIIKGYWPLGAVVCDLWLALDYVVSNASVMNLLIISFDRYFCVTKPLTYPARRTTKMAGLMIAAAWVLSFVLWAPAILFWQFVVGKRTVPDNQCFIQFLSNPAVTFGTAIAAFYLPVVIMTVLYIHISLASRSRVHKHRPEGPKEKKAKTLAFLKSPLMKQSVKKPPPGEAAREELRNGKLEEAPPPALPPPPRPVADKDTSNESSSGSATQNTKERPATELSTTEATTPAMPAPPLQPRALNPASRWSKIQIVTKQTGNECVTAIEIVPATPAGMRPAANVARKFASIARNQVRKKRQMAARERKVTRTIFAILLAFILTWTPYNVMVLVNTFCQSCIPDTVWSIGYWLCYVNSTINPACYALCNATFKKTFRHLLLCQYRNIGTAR
In words: Agonist activity at human recombinant muscarinic M4 receptor by HTS cell based assay. The experiment is classed as functional.

Muscarinic acetylcholine receptor M3, sequence (P08483 whole entry): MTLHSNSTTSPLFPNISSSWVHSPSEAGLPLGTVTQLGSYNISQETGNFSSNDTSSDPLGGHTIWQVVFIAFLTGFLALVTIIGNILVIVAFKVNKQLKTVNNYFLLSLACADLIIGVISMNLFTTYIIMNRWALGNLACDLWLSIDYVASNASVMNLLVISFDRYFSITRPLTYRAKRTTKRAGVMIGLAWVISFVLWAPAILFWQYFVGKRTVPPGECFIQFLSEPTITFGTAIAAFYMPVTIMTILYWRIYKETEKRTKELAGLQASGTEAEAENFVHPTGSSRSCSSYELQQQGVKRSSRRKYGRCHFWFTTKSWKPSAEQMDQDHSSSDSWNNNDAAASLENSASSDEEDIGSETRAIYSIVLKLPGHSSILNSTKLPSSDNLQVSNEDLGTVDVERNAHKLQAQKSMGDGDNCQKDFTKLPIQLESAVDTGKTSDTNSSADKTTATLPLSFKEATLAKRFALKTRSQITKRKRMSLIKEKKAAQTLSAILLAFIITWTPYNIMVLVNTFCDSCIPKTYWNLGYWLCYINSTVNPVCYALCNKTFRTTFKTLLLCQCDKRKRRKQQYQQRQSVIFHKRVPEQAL

One may read the EC50 as the concentration needed to bring the measured effect to its halfway point. With `CCOC(=O)N1CCC(N2CCC[C@@H](NC(=O)c3ccccc3C)C2)CC1`, the EC50 was over 30 µM in experiment [1]; over 30 µM in experiment [2]; 1.3 µM in experiment [3]; over 30 µM in experiment [4]; over 30 µM in experiment [5]; over 30 µM in experiment [6]. For the same compound, in experiment [7], the EC50 was over 30 µM.
On to `CCOC(=O)N1CCC(NCCNC(=O)c2ccccc2C)CC1`, for which the EC50 was over 30 µM in experiment [1]; over 30 µM in experiment [2]; 2.3 µM in experiment [3]; over 30 µM in experiment [4]; over 30 µM in experiment [5]; over 30 µM in experiment [6]. Also, the 50% effective concentration (EC50) in experiment [7] was over 30 µM.
